Source: PubChem BioAssay AID330 (DTP/NCI, 2004)
Where “and” joins values, the source holds several entries; their conditions need not be identical. Identical values can stand only once. Toxic doses and inconclusive results are not listed.

Test system: P388 leukemia ip, CD2F1 mice, survival T/C
Test: NCI In Vivo Anticancer Drug Screen. Data for tumor model P388 Leukemia (intraperitoneal) in CD2F1 (CDF1) mice
Details: endpoint: median survival time, higher = longer survival
Procedure, shortened: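 Mice carrying the transplanted tumor received test compound or vehicle. Survival was recorded in each group, and the value is the treated-group measurement divided by that of the vehicle-treated control group.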

[1] = dose: 50.0 mg/kg/injection, schedule: Q01DX005 (ip), vehicle: Klucel (hydroxypropylcellulose) (HPC)
[2] = dose: 100.0 mg/kg/injection, schedule: Q01DX005 (ip), vehicle: Klucel (hydroxypropylcellulose) (HPC)
[3] = dose: 200.0 mg/kg/injection, schedule: Q01DX005 (ip), vehicle: Klucel (hydroxypropylcellulose) (HPC)
[4] = dose: 50.0 mg/kg/injection, schedule: Q01DX009 (ip), vehicle: Klucel (hydroxypropylcellulose) (HPC)
[5] = dose: 100.0 mg/kg/injection, schedule: Q01DX009 (ip), vehicle: Klucel (hydroxypropylcellulose) (HPC)
[6] = dose: 60.0 mg/kg/injection, schedule: Q01DX005 (ip), vehicle: saline with Tween-80
[7] = dose: 6.25 mg/kg/injection, schedule: Q01DX005 (ip), vehicle: water
[8] = dose: 60.0 mg/kg/injection, schedule: Q01DX005 (ip), vehicle: Klucel (hydroxypropylcellulose) (HPC)
[9] = dose: 120.0 mg/kg/injection, schedule: Q01DX005 (ip), vehicle: Klucel (hydroxypropylcellulose) (HPC)
[10] = dose: 240.0 mg/kg/injection, schedule: Q01DX005 (ip), vehicle: Klucel (hydroxypropylcellulose) (HPC)
[11] = dose: 100.0 mg/kg/injection, schedule: Q04DX002 (ip), vehicle: saline with Tween-80
[12] = dose: 200.0 mg/kg/injection, schedule: Q04DX002 (ip), vehicle: saline with Tween-80
[13] = dose: 400.0 mg/kg/injection, schedule: Q04DX002 (ip), vehicle: saline with Tween-80

Question: How did the T/C (dose: 3.12 mg/kg/injection, schedule: Q01DX009 (ip), vehicle: distilled water + alcohol) turn out when `CC#CS(=O)C#CC` was run?
Answer: Its T/C is 105 % of control.

Question: And the T/C (dose: 6.25 mg/kg/injection, schedule: Q01DX009 (ip), vehicle: distilled water + alcohol)?
Answer: Its T/C is 105 % of control.

Question: With `O=C(NC1CCCCC1)C(O)C(O)C(O)C(O)CO` (stereo unspecified) as the compound, how does the T/C [1] read?
Answer: The T/C was 107 % of control.

Question: And the T/C [2]?
Answer: Its T/C is 107 % of control.

Question: And the T/C [3]?
Answer: Its T/C is 104 % of control.

Question: Which results are given for `CCNC1(c2ccccc2)CCCCC1`?
Answer: T/C (dose: 6.25 mg/kg/injection, schedule: Q04DX003 (ip), vehicle: saline): 121 % of control; T/C (dose: 12.5 mg/kg/injection, schedule: Q04DX003 (ip), vehicle: saline): 106 % of control; T/C (dose: 25.0 mg/kg/injection, schedule: Q04DX003 (ip), vehicle: saline): 104 % of control

Question: What does the source list for `O=CC(O)C(O)C(O)C(O)C(O)C#CC#CC(O)C(O)C(O)C(O)C(O)C=O` (stereo unspecified)?
Answer: T/C (dose: 50.0 mg/kg/injection, schedule: Q01DX005 (ip), vehicle: saline): 100 % of control; T/C (dose: 100.0 mg/kg/injection, schedule: Q01DX005 (ip), vehicle: saline): 105 % of control; T/C (dose: 200.0 mg/kg/injection, schedule: Q01DX005 (ip), vehicle: saline): 92 % of control

Question: `COc1ccc(NC(CCN2CCN(c3ccccc3)CC2)=NC(C)(C)C)cc1` was tested. Which T/C [4] did it give?
Answer: The T/C was 96 % of control.

Question: And the T/C [5]?
Answer: The T/C was 96 % of control.

Question: Which results are given for `Cc1cccc(Cl)c1NCCN1CCCC1`?
Answer: T/C (dose: 15.0 mg/kg/injection, schedule: Q01DX005 (ip), vehicle: saline with Tween-80): 103 % of control; T/C (dose: 30.0 mg/kg/injection, schedule: Q01DX005 (ip), vehicle: saline with Tween-80): 101 % of control; T/C [6]: 106 % of control and 108 % of control

Question: For `COC(=O)Nc1nc2ccc(CCC(=O)c3c(C)oc(C)c3-c3ccc(NC(C)=O)cc3)cc2[nH]1`, which T/C [6] is on record?
Answer: Its T/C is 99 % of control.

Question: And the T/C (dose: 120.0 mg/kg/injection, schedule: Q01DX005 (ip), vehicle: saline with Tween-80)?
Answer: The T/C was 99 % of control.

Question: With `CC(C)C[NH-].CC(C)C[NH-].O.O.[Cl][Pt+2][Cl]` as the compound, how does the T/C (dose: 11.0 mg/kg/injection, schedule: Q01DX009 (ip), vehicle: saline with Tween-80) read?
Answer: Its T/C is 167 % of control.

Question: And the T/C (dose: 12.5 mg/kg/injection, schedule: Q01DX009 (ip), vehicle: other)?
Answer: Its T/C is 181 % of control.

Question: What about the T/C (dose: 16.5 mg/kg/injection, schedule: Q01DX009 (ip), vehicle: saline with Tween-80) of the same compound?
Answer: Its T/C is 180 % of control.

Question: And the T/C (dose: 25.0 mg/kg/injection, schedule: Q01DX009 (ip), vehicle: other)?
Answer: Its T/C is 200 % of control.

Question: What about the T/C (dose: 25.0 mg/kg/injection, schedule: Q01DX009 (ip), vehicle: saline with Tween-80) of the same compound?
Answer: The T/C was 218 % of control.

Question: For `O=c1[nH]c(=O)c2c(Br)[nH]nc2[nH]1`, which T/C (dose: 100.0 mg/kg/injection, schedule: Q01DX001 (ip), vehicle: Klucel (hydroxypropylcellulose) (HPC)) is on record?
Answer: Its T/C is 110 % of control.

Question: And the T/C (dose: 200.0 mg/kg/injection, schedule: Q01DX001 (ip), vehicle: Klucel (hydroxypropylcellulose) (HPC))?
Answer: Its T/C is 103 % of control.

Question: With `O=C(O)C(O)COc1nsnc1N1CCOCC1` (stereo unspecified) as the compound, how does the T/C [4] read?
Answer: The T/C was 107 % of control.

Question: What about the T/C [5] of the same compound?
Answer: Its T/C is 102 % of control.

Question: And the T/C (dose: 200.0 mg/kg/injection, schedule: Q01DX009 (ip), vehicle: Klucel (hydroxypropylcellulose) (HPC))?
Answer: The T/C was 107 % of control.

Question: Which T/C (dose: 50.0 mg/kg/injection, schedule: Q01DX005 (ip), vehicle: saline with Tween-80) does the source give for `OCC1CC2C=CC1O2` (stereo unspecified) here?
Answer: Its T/C is 101 % of control.

Question: What about the T/C (dose: 100.0 mg/kg/injection, schedule: Q01DX005 (ip), vehicle: saline with Tween-80) of the same compound?
Answer: Its T/C is 114 % of control.

Question: And the T/C (dose: 200.0 mg/kg/injection, schedule: Q01DX005 (ip), vehicle: saline with Tween-80)?
Answer: Its T/C is 95 % of control.

Question: For `C[S+](C)CCCNC(=O)c1csc(-c2csc(N)n2)n1`, which T/C [7] is on record?
Answer: Its T/C is 100 % of control.

Question: What about the T/C (dose: 12.5 mg/kg/injection, schedule: Q01DX005 (ip), vehicle: water) of the same compound?
Answer: The T/C was 96 % of control.

Question: What about the T/C (dose: 25.0 mg/kg/injection, schedule: Q01DX005 (ip), vehicle: water) of the same compound?
Answer: The T/C was 96 % of control.

Question: With `Nc1cc(S(=O)(=O)O)cc2cc(S(=O)(=O)O)cc(O)c12` as the compound, how does the T/C [8] read?
Answer: Its T/C is 96 % of control.

Question: What about the T/C [9] of the same compound?
Answer: Its T/C is 98 % of control.

Question: And the T/C [10]?
Answer: Its T/C is 95 % of control.

Question: Which results are given for `CCOC(=O)C(NC(=O)OCc1ccccc1)C(O)C#C[Si](C)(C)C` (stereo unspecified)?
Answer: T/C [11]: 95 % of control; T/C [12]: 95 % of control; T/C [13]: 90 % of control

Question: Which results are given for `C/C(=C\C(=O)c1cccc(F)c1)N1CCN(c2ccc(F)cc2)CC1`?
Answer: T/C [1]: 100 % of control; T/C [2]: 96 % of control; T/C [3]: 100 % of control

Question: How did the T/C (dose: 12.5 mg/kg/injection, schedule: Q01DX009 (ip), vehicle: Klucel (hydroxypropylcellulose) (HPC)) turn out when `C1CCC2OCCOCCOC3CCCCC3OCCOCCOC2C1` (stereo unspecified) was run?
Answer: The T/C was 95 % of control and 96 % of control.

Question: And the T/C (dose: 25.0 mg/kg/injection, schedule: Q01DX009 (ip), vehicle: Klucel (hydroxypropylcellulose) (HPC))?
Answer: The T/C was 114 % of control and 91 % of control.

Question: `CC1=C(C(=O)Nc2ccccc2)C(c2ccccc2)C(C(=O)Nc2ccccc2)=C(C)N1` was tested. Which T/C [11] did it give?
Answer: The T/C was 95 % of control.

Question: What about the T/C [12] of the same compound?
Answer: Its T/C is 94 % of control.

Question: What about the T/C [13] of the same compound?
Answer: The T/C was 94 % of control.

Question: What does the source list for `CCCCCCCCN(CCCCCCCC)/N=C/c1c2c(O)c3c(O)c(C)c4c(c3c1O)C(=O)C(C)(O/C=C/C(OC)C(C)C(OC(C)=O)C(C)C(O)C(C)C(O)C(C)/C=C/C=C(C)C(=O)N2)O4` (stereo unspecified)?
Answer: T/C [8]: 95 % of control; T/C [9]: 89 % of control; T/C [10]: 92 % of control

Question: Which results are given for `CNC(=O)c1cccc2c(Nc3ccc(NS(C)(=O)=O)cc3OC)c3cccc(C)c3nc12`?
Answer: T/C (dose: 1.56 mg/kg/injection, schedule: Q01DX005 (ip), vehicle: water): 163 % of control; T/C (dose: 3.0 mg/kg/injection, schedule: Q01DX005 (ip), vehicle: water): 175 % of control; T/C (dose: 3.12 mg/kg/injection, schedule: Q01DX005 (ip), vehicle: water): 169 % of control; T/C [7]: 218 % of control; T/C (dose: 12.5 mg/kg/injection, schedule: Q01DX005 (oral), vehicle: water): 151 % of control
